For this test, the system named is HIV. Put plainly: MT4 assay: antiviral HIV activity in MT-4 cells. The format is cell-based. Conditions: read-out 96 hours later with cell titer glo, 10 point dose response. Summed up: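 Compounds tested in HTLV-1-transformed MT-4 cells for protection from HIV, with cytotoxicity run in parallel under the same conditions; CellTiter-Glo luminescence read 96 h later. IC50 from 10-point, 3–4-fold serial dilutions spanning >1000-fold, % inhibition relative to no-compound control, fitted by four-parameter logistic.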
For orientation: Cellular ATP, detected with luciferase, serves as a proxy for viable cell number.

Setting [1] is: Human immunodeficiency virus 1, MT4, 96 h, read-out: HIV MT4 Assay IC50 (μM), HTLV-1 transformed cell line MT-4.
Setting [2] is: read-out: HIV MT4 Assay IC50, HTLV-1 transformed cell line MT-4.

Structures are written as SMILES. Counter-ions that a name gives are not always drawn. Like-named read-outs stand apart in the source and are kept apart here.

What is called IC50 is the point on the concentration scale where inhibition reaches its midpoint. For `Cc1ccc(-c2c(C(OC(C)(C)C)C(=O)O)c(C)nc3c2ccn3Cc2ccc(F)cc2C)cc1` (stereo not drawn) [Example 70, 2-(tert-butoxy)-2-(1-(4-fluoro-2-methylbenzyl)-6-methyl-4-(p-tolyl)-1H-pyrrolo[2,3-b]pyridin-5-yl)acetic acid], the IC50 under setting [1] came out at 0.04 µM.
Regarding `Cc1nc2c(ccn2C(C)c2ccc(F)c(F)c2)c(-c2ccc3c(c2)CCCO3)c1C(OC(C)(C)C)C(=O)O` (stereo not drawn) [Example 71, 2-(tert-butoxy)-2-(4-(chroman-6-yl)-1-(1-(3,4-difluorophenyl)ethyl)-6-methyl-1H-pyrrolo[2,3-b]pyridin-5-yl)acetic acid], under setting [2], the IC50 is 0.016 µM.
For `Cc1nc2c(ccn2C(C)c2ccc(F)c(F)c2)c(-c2ccc3c(c2)CCCO3)c1C(OC(C)(C)C)C(=O)O` (stereo not drawn) [Example 72, 2-(tert-butoxy)-2-(4-(chroman-6-yl)-1-(1-(3,4-difluorophenyl)ethyl)-6-methyl-1H-pyrrolo[2,3-b]pyridin-5-yl)acetic acid], the IC50 under setting [2] is 0.19 µM.
For `Cc1ccc(-c2c(C(OC(C)(C)C)C(=O)O)c(C)nc3c2ccn3C2CCCCC2)cc1` (stereo not drawn) [Example 73, 2-(tert-Butoxy)-2-[1-cyclohexyl-6-methyl-4-(4-methylphenyl)-1H-pyrrolo[2,3-b]pyridin-5-yl]acetic acid], under setting [1], the concentration for half-maximal inhibition (IC50) was found to be 1.31 µM.
Turning to `Cc1ccc(-c2c(C(OC(C)(C)C)C(=O)O)c(C)nc3c2ccn3C2CCC(C)CC2)cc1` [Example 74, 2-(tert-butoxy)-2-(6-methyl-1-((1R,4R)-4-methylcyclohexyl)-4-(p-tolyl)-1H-pyrrolo[2,3-b]pyridin-5-yl)acetic acid], the IC50 under setting [1] worked out at 2.33 µM.
As for `COCCn1ccc2c(-c3ccc(C)cc3)c(C(OC(C)(C)C)C(=O)O)c(C)nc21` (stereo not drawn) [Example 75, 2-(tert-Butoxy)-2-(1-(2-methoxyethyl)-6-methyl-4-(p-tolyl)-1H-pyrrolo[2,3-b]pyridin-5-yl)acetic acid], the IC50 under setting [1] is 4.1 µM.
Consider `Cc1ccc(-c2c(C(OC(C)(C)C)C(=O)O)c(C)nc3c2ccn3CC(C)(C)C)cc1` (stereo not drawn) [Example 76, 2-(tert-butoxy)-2-(6-methyl-1-neopentyl-4-(p-tolyl)-1H-pyrrolo[2,3-b]pyridin-5-yl)acetic acid], for which the half-maximal inhibitory concentration (IC50) under setting [1] is 0.9 µM.
Turning to `Cc1ccc(-c2c(C(OC(C)(C)C)C(=O)O)c(C)nc3c2ccn3Cc2ccc(Cl)cc2)cc1` (stereo not drawn) [Example 77, 2-(tert-Butoxy)-2-(1-(4-chlorobenzyl)-6-methyl-4-(p-tolyl)-1H-pyrrolo[2,3-b]pyridin-5-yl)acetic acid], the IC50 under setting [1] amounted to 0.65 µM.
For the molecule `Cc1ccc(-c2c(C(OC(C)(C)C)C(=O)O)c(C)nc3c2ccn3Cc2cc(F)cc(F)c2)cc1` (stereo not drawn) [Example 78, 2-(tert-Butoxy)-2-(1-(3,5-difluorobenzyl)-6-methyl-4-(p-tolyl)-1H-pyrrolo[2,3-b]pyridin-5-yl)acetic acid], the IC50 under setting [1] came out at 0.35 µM.
For the molecule `Cc1ccc(-c2c(C(OC(C)(C)C)C(=O)O)c(C)nc3c2ccn3CCOCc2ccccc2)cc1` (stereo not drawn) [Example 79, 2-(1-(2-(benzyloxy)ethyl)-6-methyl-4-(p-tolyl)-1H-pyrrolo[2,3-b]pyridin-5-yl)-2-(tert-butoxy)acetic acid], under setting [1], the IC50 stood at 4.87 µM.
For `Cc1ccc(-c2c(C(OC(C)(C)C)C(=O)O)c(C)nc3c2ccn3Cc2ccc3c(c2)OCO3)cc1` (stereo not drawn) [Example 80, 2-(1-(Benzo[d][1,3]dioxol-5-ylmethyl)-6-methyl-4-(p-tolyl)-1H-pyrrolo[2,3-b]pyridin-5-yl)-2-(tert-butoxy)acetic acid], under setting [1], the IC50 is 0.8 µM.
For the molecule `Cc1nc2c(ccn2[C@H](C)c2ccc(F)cc2)c(-c2ccc3c(c2)CCCO3)c1C(OC(C)(C)C)C(=O)O` (stereo partly drawn) [Example 81], the IC50 under setting [1] was 0.03 µM.
On the same count and under the same terms, to `Cc1nc2c(ccn2C2(c3ccc(F)cc3)CC2)c(-c2ccc3c(c2)CCCO3)c1C(OC(C)(C)C)C(=O)O` (stereo not drawn) [Example 82, 2-(tert-butoxy)-2-(4-(chroman-6-yl)-1-(1-(4-fluorophenyl)cyclopropyl)-6-methyl-1H-pyrrolo[2,3-b]pyridin-5-yl)acetic acid] belongs 0.3 µM; to `Cc1nc2c(ccn2[C@@H](C)c2ccc(F)cc2)c(-c2ccc3c(c2)CCCO3)c1C(OC(C)(C)C)C(=O)O` (stereo partly drawn) [Example 83], 0.123 µM; to `Cc1nc2c(ccn2[C@@H](C)c2ccc(F)cc2)c(-c2ccc3c(c2)CCCO3)c1[C@@H](OC(C)(C)C)C(=O)O` [Example 84, (R)-2-(tert-butoxy)-2-(4-(chroman-6-yl)-1-((S)-1-(4-fluorophenyl)ethyl)-6-methyl-1H-pyrrolo[2,3-b]pyridin-5-yl)acetic acid], 0.124 µM.
The same measure, in the same setting: for `Cc1nc2c(ccn2[C@@H](C)c2ccc(F)cc2)c(-c2ccc3c(c2)CCCO3)c1[C@H](OC(C)(C)C)C(=O)O` [Example 85, (S)-2-(tert-butoxy)-2-(4-(chroman-6-yl)-1-((S)-1-(4-fluorophenyl)ethyl)-6-methyl-1H-pyrrolo[2,3-b]pyridin-5-yl)acetic acid] the value was 0.955 µM; for `Cc1nc2c(ccn2Cc2cccc(F)c2F)c(-c2ccc3c(c2)CCCO3)c1[C@@H](OC(C)(C)C)C(=O)O` [Example 86, (R)-2-(tert-butoxy)-2-(4-(chroman-6-yl)-1-(2,3-difluorobenzyl)-6-methyl-1H-pyrrolo[2,3-b]pyridin-5-yl)acetic acid], 50 µM.
On to `Cc1ccc(-c2c([C@H](OC(C)(C)C)C(=O)O)c(C)nc3c2ccn3Cc2ccccc2F)cc1` [Example 88, (S)-2-(tert-butoxy)-2-(1-(2-fluorobenzyl)-6-methyl-4-(p-tolyl)-1H-pyrrolo[2,3-b]pyridin-5-yl)acetic acid], for which the IC50 under setting [1] was determined as 0.107 µM.
For the molecule `Cc1nc2c(ccn2Cc2ccc(F)cc2Cl)c(-c2ccc(Cl)cc2)c1[C@H](OC(C)(C)C)C(=O)O` [Example 89, (S)-2-(tert-butoxy)-2-(1-(2-chloro-4-fluorobenzyl)-4-(4-chlorophenyl)-6-methyl-1H-pyrrolo[2,3-b]pyridin-5-yl)acetic acid], under setting [1], the IC50 came to 0.065 µM.
`Cc1nc2c(ccn2Cc2ccc(F)cc2)c(-c2ccc(Cl)cc2F)c1C(OC(C)(C)C)C(=O)O` (stereo not drawn) [Example 90, 2-(tert-Butoxy)-2-(4-(4-chloro-2-fluorophenyl)-1-(4-fluorobenzyl)-6-methyl-1H-pyrrolo[2,3-b]pyridin-5-yl)acetic acid]: the IC50 under setting [1] is 0.48 µM.
For the molecule `Cc1nc2c(ccn2Cc2ccc(F)cc2)c(-c2ccccc2F)c1C(OC(C)(C)C)C(=O)O` (stereo not drawn) [Example 91, 2-(tert-Butoxy)-2-(1-(4-fluorobenzyl)-4-(2-fluorophenyl)-6-methyl-1H-pyrrolo[2,3-b]pyridin-5-yl)acetic acid], under setting [1], the IC50 is 0.168 µM.
Take `COc1c(C)cc(-c2c(C(OC(C)(C)C)C(=O)O)c(C)nc3c2ccn3Cc2ccc(F)cc2)cc1C` (stereo not drawn) [Example 92, 2-(tert-Butoxy)-2-(1-(4-fluorobenzyl)-4-(4-methoxy-3,5-dimethylphenyl)-6-methyl-1H-pyrrolo[2,3-b]pyridin-5-yl)acetic acid]: the IC50 under setting [1] is 0.98 µM.
On to `Cc1ccc(-c2c(C(OC(C)(C)C)C(=O)O)c(C)nc3c2ccn3Cc2ccc(F)cc2)c(F)c1` (stereo not drawn) [Example 93, 2-(tert-Butoxy)-2-(4-(2-fluoro-4-methylphenyl)-1-(4-fluorobenzyl)-6-methyl-1H-pyrrolo[2,3-b]pyridin-5-yl)acetic acid], for which the IC50 under setting [1] amounted to 0.046 µM.
For the molecule `Cc1cc(Cl)ccc1-c1c(C(OC(C)(C)C)C(=O)O)c(C)nc2c1ccn2Cc1ccc(F)cc1` (stereo not drawn) [Example 94, 2-(tert-Butoxy)-2-(4-(4-chloro-2-methylphenyl)-1-(4-fluorobenzyl)-6-methyl-1H-pyrrolo[2,3-b]pyridin-5-yl)acetic acid, Trifluoroacetic acid salt], the IC50 under setting [1] is 0.11 µM.
On to `Cc1nc2c(ccn2Cc2ccc(F)c(F)c2)c(-c2ccc(F)cc2)c1[C@H](OC(C)(C)C)C(=O)O` [Example 102, (S)-2-(tert-Butoxy)-2-(1-(3,4-difluorobenzyl)-4-(4-fluorophenyl)-6-methyl-1H-pyrrolo[2,3-b]193pyridine-5-yl)acetic acid], for which the IC50 under setting [1] came to 0.367 µM.
Turning to `COc1ccc(-c2c([C@H](OC(C)(C)C)C(=O)O)c(C)nc3c2ccn3Cc2ccc(F)c(F)c2)cc1C` [Example 103, (S)-2-(tert-Butoxy)-2-(1-(3,4-difluorobenzyl)-4-(4-methoxy-3-methylphenyl)-6-methyl-1H-pyrrolo[2,3-b]pyridin-5-yl)acetic acid], under setting [1], the IC50 was found to be 0.81 µM.
Regarding `Cc1nc2c(ccn2Cc2ccc(F)c(F)c2)c(-c2ccc(F)c(Cl)c2)c1[C@H](OC(C)(C)C)C(=O)O` [Example 105, (S)-2-(tert-Butoxy)-2-(4-(3-chloro-4-fluorophenyl)-1-(3,4-difluorobenzyl)-6-methyl-1H-pyrrolo[2,3-b]pyridin-5-yl)acetic acid], the IC50 under setting [1] amounted to 1.42 µM.
On to `Cc1nc2c(ccn2Cc2ccc(F)c(F)c2)c(-c2ccc(Cl)c(F)c2)c1[C@H](OC(C)(C)C)C(=O)O` [Example 106, (S)-2-(tert-Butoxy)-2-(4-(4-chloro-3-fluorophenyl)-1-(3,4-difluorobenzyl)-6-methyl-1H-pyrrolo[2,3-b]pyridin-5-yl)acetic acid], for which, under setting [1], the IC50 amounted to 0.1 µM.
With `Cc1nc2c(c(-c3ccc4c(c3C)CCCO4)c1[C@H](OC(C)(C)C)C(=O)O)CCN2Cc1ccc(F)c(F)c1` [Example 107, (2S)(M)-2-(tert-Butoxy)-2-(1-(3,4-difluorobenzyl)-6-methyl-4-(5-methylchroman-6-yl)-2,3-dihydro-1H-pyrrolo[2,3-b]pyridin-5-yl)acetic acid, Trifluoroacetic acid salt], the IC50 under setting [1] was found to be 0.008 µM.
Still for that read-out and setting: to `Cc1nc2c(ccn2Cc2ccc(F)c(F)c2)c(-c2ccc3c(c2)CCO3)c1[C@H](OC(C)(C)C)C(=O)O` [Example 112, (S)-2-(tert-butoxy)-2-(1-(3,4-difluorobenzyl)-4-(2,3-dihydrobenzofuran-5-yl)-6-methyl-1H-pyrrolo[2,3-b]pyridin-5-yl)acetic acid] belongs 0.011 µM.
